Reference: US5075338A (priority 1986, dated 1991)
pIC50: −log10 of the molar value.

Assays:
[1] = system: rabbit pulmonary artery, tyramine-induced noradrenaline release; details: for pIC50: read-out: IC50, inhibition of noradrenaline releasing effect of tyramine
[2] = in vivo; details: rat
[3] = system: tetrabenazine-induced depression; experiment: antagonism of tetrabenazine-induced depression in learning test: shuttle-box test; type: in vivo, rat; details: N = 12
From the text: (§1) II/3 Determination of antagonism of tetrabenazine-induced depression, in learning test, on rats
Method: B. Knoll, J. Knoll: Pol. J. Pharmacol. Pharm. 34, 17-23 (1982).
According to this test depression caused by tetrabenazine can be antagonized by the compounds of the Formula I. In Table 3 the numerical values of the series of test carried out by using the compound according to Example 7 are disclosed.

[4] = effect exerted on motility, on rats (spontaneous passings in shuttle-box); type: in vivo, rat
Method: II/4. Determination of effect exerted on motility, on rats
The test is carried out in a Shuttle-box without introducing current and light. The number of spontaneous passings over from side of the box to the other is registered and summarized by the apparatus for an observation period of 30 minutes. The test is carried out on groups comprising […] CFY rats of both sexes weighing […]. The test compound of the Formula I is added prior to the test subcutaneously, together with tetrabenazine and desmethyl-imiprmine (DMI) reference compounds, respectively.

[5] = system: noradrenaline uptake, nucleus free supernatant of rat cortex; experiment: 3H-noradrenaline uptake in the nucleus free supernatant of rat cortex; type: biochemical; details: 37° C., 5 minutes
Method: II/7. Determination of ^3 H-noradrenaine uptake in the nucleus free supernatant of rat cortex (in vivo)
The cortex is homogenized in 0.32M saccharose with a teflon potter, the cell nucleus is sedimented by centrifuging at 0° C. with 1000 g for 20 minutes; the supernatant thus obtained is used for the test. The intake is accomplished in a KrebsHeinseleit solution saturated with carbogen, in a final volume of 1 ml, at a ^3 H-noradrenaline concentration of […]. Pre-incubation and incubation are carried out at 37° C. for 5 minutes each. The reaction is stopped by adding 4 ml of ice-cold Krebs solution and the tissue is separated by GF/B filtration. Non-specific uptake is determined by using 10^-4 M nisoxetine at 37° C. The radioactivity of the GF/B filter-paper is determined by liquid scintillation measurement in a toluene-PPO-POPOPtritone mixture.

[6] = psychostimulant effect in rats: shuttle-box test; type: in vivo, rat
[7] = effect exerted on food intake, in rats; type: in vivo, rat
[8] = system: tetrabenazine-induced depression; experiment: antagonism of tetrabenazine-induced depression in learning test: jumping test; type: in vivo, rat
From the text: as §1
a) Jumping test. Method: J. Knoll, B. Knoll: Arzneimittel Forschung 8, 339 (1958), 9, 633 (1959).

[9] = system: isolated rat striatum; experiment: dopaminergic activity increasing effect on isolated rat striatum preparations, in vitro
From the text: (§2) Determination of the dopamineric activity increasing effect, on isolated rat striatum preparations
(§3) Method: Kerecsen et al: Chromatography, the State of the Art, (Eds. Kalasz, Ettre) Akademiai Kiaoo Budepest (1985) page 195-203.

[10] = system: isolated rat striatum; experiment: dopaminergic activity increasing effect on isolated rat striatum preparations, ex vivo
Method: as §2, §3
In ex vivo tests the animals are treated s.c. for 3 weeks and the organ is removed 2 hours after administering the last injection.

[11] = 1st day, tetrabenazine 0.5 mg/kg + 10 mg/kg compound, s.c. daily
[12] = 2nd day, tetrabenazine 0.5 mg/kg + 10 mg/kg compound, s.c. daily
[13] = 3rd day, tetrabenazine 0.5 mg/kg + 10 mg/kg compound, s.c. daily
[14] = 4th day, tetrabenazine 0.5 mg/kg + 10 mg/kg compound, s.c. daily
[15] = 5th day, tetrabenazine 0.5 mg/kg + 10 mg/kg compound, s.c. daily
[16] = 10 mg/kg s.c., 30 minutes observation
[17] = 1st day, tetrabenazine 0.5 mg/kg s.c. daily
[18] = 2nd day, tetrabenazine 0.5 mg/kg s.c. daily
[19] = 3rd day, tetrabenazine 0.5 mg/kg s.c. daily
[20] = 4th day, tetrabenazine 0.5 mg/kg s.c. daily
[21] = 5th day, tetrabenazine 0.5 mg/kg s.c. daily

CCCC(Cc1ccccc1)NC(C)C.Cl (centres unmarked) [Example 1, N-iso-propyl-1-phenyl-2-pentylamine-hydrochloride]
pIC50 [1]: 5.13
LD50 ([2]; sc): 135 mg/kg

CCC(Cc1ccccc1)NC1CCCCC1 (centres unmarked) [Example 9]
pIC50 [1]: 6.10
LD50 ([2]; sc): 160 mg/kg

COCCNC(C)Cc1ccccc1 (centres unmarked) [Example 7, N-(2-methoxyethyl)-1-phenyl-2-propyl-amine]
F+ = % of animals showing a conditioned reaction [3, 11]: 34.60%
IR = number of intersignal reactions [3, 11]: 10.50
f+ = % of animals responding to unconditioned stimulus [3, 11]: 49.80%
f- = % of animals which do not respond even to unconditioned stimulus [3, 11]: 16.40%
F+ = % of animals showing a conditioned reaction [3, 12]: 62.20%
IR = number of intersignal reactions [3, 12]: 14.70
f+ = % of animals responding to unconditioned stimulus [3, 12]: 21.00%
f- = % of animals which do not respond even to unconditioned stimulus [3, 12]: 16.80%
F+ = % of animals showing a conditioned reaction [3, 13]: 69.20%
IR = number of intersignal reactions [3, 13]: 21.30
f+ = % of animals responding to unconditioned stimulus [3, 13]: 9.80%
f- = % of animals which do not respond even to unconditioned stimulus [3, 13]: 21.00%
F+ = % of animals showing a conditioned reaction [3, 14]: 64.90%
IR = number of intersignal reactions [3, 14]: 14.30
f+ = % of animals responding to unconditioned stimulus [3, 14]: 17.70%
f- = % of animals which do not respond even to unconditioned stimulus [3, 14]: 17.40%
F+ = % of animals showing a conditioned reaction [3, 15]: 76.10%
IR = number of intersignal reactions [3, 15]: 16.80
f+ = % of animals responding to unconditioned stimulus [3, 15]: 8.50%
f- = % of animals which do not respond even to unconditioned stimulus [3, 15]: 15.40%
pIC50 [1]: 4.85
LD50 ([2]; sc): > 200 mg/kg
mortality ([2]; sc): 0%

CCCCC(Cc1ccccc1)NC(C)Cc1ccccc1 (centres unmarked) [Example 12]
pIC50 [1]: 5.46
LD50 ([2]; iv): 16 mg/kg
LD50 ([2]; sc): > 25 mg/kg

CNCCCN1c2ccccc2CCc2ccccc21 [DMI, desmethyl-imiprmine, reference compound]
effect on motility and on tetrabenazine induced depression of motility ([4]; DMI reference): inhibitory by itself rather than antagonistic against tetrabenazine induced depression of motility
pIC50 [5]: 8.30 to 9.00

CCNC(CC)Cc1ccccc1 (centres unmarked) [Example 8]
pIC50 [1]: 5.72
LD50 ([2]; iv): 46 mg/kg
LD50 ([2]; sc): 195 mg/kg

CCCNC(Cc1ccccc1)c1ccccc1.Cl (centres unmarked) [Example 3, N-propyl-1,2-diphenyl-ethylamine-hydrochloride]
motility [4, 16]: do not increase motility
pIC50 [1]: 5.13
LD50 ([2]; sc): 75 mg/kg
mortality ([2]; sc): 0%

CCCNC(CCC)Cc1ccccc1 (centres unmarked) [Example 4, N-propyl-1-phenyl-2-pentylamine]
general motility ([6]; 0.5 mg/kg daily): without signs of increased general motility
performance over the control ([6]; 0.5 mg/kg daily): significant increase of performance over the control
increase of the intersignal reactions ([6]; 15 mg/kg daily): moderate
learning and retention ([6]; 15 mg/kg daily, complete test-period): increased learning and retentions from the very first day
maintenance of acquired performance after termination of treatment ([6]; 15 mg/kg, one-week learning period, 6 weeks after termination): completely maintain the performance acquired
antagonism of motility inhibiting effect of 1 mg/kg of tetrabenazine ([4]; 1 mg/kg s.c.): completely antagonized
motility [4, 16]: do increase motility
food intake ([7]; 5 mg/kg, first hour): decreasing effect being approximately identical with that of about 0.5 mg/kg of amphetamine
pIC50 [5]: 7.30
pIC50 [1]: 5.91
LD50 ([2]; iv): 27 mg/kg
LD50 ([2]; po): 270 mg/kg
LD50 ([2]; sc): 50 mg/kg

COc1cc2c(cc1OC)C1CC(=O)C(CC(C)C)CN1CC2 (centres unmarked) [tetrabenazine, reference compound]
inhibition of the solid conditioned reflex ([8]; 5 mg/kg tetrabenazine): completely inhibited
F+ = % of animals showing a conditioned reaction [3, 17]: 9.58%
IR = number of intersignal reactions [3, 17]: 10.25
f+ = % of animals responding to unconditioned stimulus [3, 17]: 31.25%
f- = % of animals which do not respond even to unconditioned stimulus [3, 17]: 59.17%
F+ = % of animals showing a conditioned reaction [3, 18]: 8.50%
IR = number of intersignal reactions [3, 18]: 8.33
f+ = % of animals responding to unconditioned stimulus [3, 18]: 30.75%
f- = % of animals which do not respond even to unconditioned stimulus [3, 18]: 60.75%
F+ = % of animals showing a conditioned reaction [3, 19]: 11.42%
IR = number of intersignal reactions [3, 19]: 4.67
f+ = % of animals responding to unconditioned stimulus [3, 19]: 15.83%
f- = % of animals which do not respond even to unconditioned stimulus [3, 19]: 72.75%
F+ = % of animals showing a conditioned reaction [3, 20]: 9.8%
IR = number of intersignal reactions [3, 20]: 4.50
f+ = % of animals responding to unconditioned stimulus [3, 20]: 17.83%
f- = % of animals which do not respond even to unconditioned stimulus [3, 20]: 73.08%
F+ = % of animals showing a conditioned reaction [3, 21]: 17.67%
IR = number of intersignal reactions [3, 21]: 6.92
f+ = % of animals responding to unconditioned stimulus [3, 21]: 12.58%
f- = % of animals which do not respond even to unconditioned stimulus [3, 21]: 69.75%
motility ([4]; 1 mg/kg tetrabenazine): motility inhibiting effect

CCCNC(CC)Cc1ccccc1 (centres unmarked) [Example 6, N-propyl-1-phenyl-2-butyl-amine]
antagonism of the depressive effect of tetrabenazine ([8]; 15 mg/kg): entirely antagonized
inhibition of the solid conditioned reflex ([8]; 15 mg/kg (high doses)): can not be inhibited
antagonism of motility inhibiting effect of 1 mg/kg of tetrabenazine ([4]; 2.5 mg/kg s.c.): significantly antagonized
motility [4, 16]: do not increase motility
food intake ([7]; rats fasted for 96 hours, similar dose (15 mg/kg)): does not influence the food intake
food intake ([7]; well-fed satiated rats, 15 mg/kg p.o. or s.c.): does not change food intake
pIC50 [5]: 6.30
DOPAC concentration of the bath of the organ ([9]; dose 0.3): 172 pmol/g/min
dopamine (DA) concentration of the bath of the organ ([9]; dose 0.3): 214 pmol/g/min
DOPAC concentration of the bath of the organ ([9]; dose 1.0): 190 pmol/g/min
dopamine (DA) concentration of the bath of the organ ([9]; dose 1.0): 366 pmol/g/min
DOPAC concentration of the bath of the organ ([9]; dose 3.0): 331 pmol/g/min
dopamine (DA) concentration of the bath of the organ ([9]; dose 3.0): 290 pmol/g/min
DOPAC concentration of the bath of the organ ([9]; dose 10.0): 537 pmol/g/min
dopamine (DA) concentration of the bath of the organ ([9]; dose 10.0): 477 pmol/g/min
DOPAC concentration of the bath of the organ ([10]; daily dose 0.25, s.c. 3 weeks): 222 pmol/g/min
dopamine (DA) concentration of the bath of the organ ([10]; daily dose 0.25, s.c. 3 weeks): 257 pmol/g/min
DOPAC concentration of the bath of the organ ([10]; daily dose 5.0, s.c. 3 weeks): 223 pmol/g/min
dopamine (DA) concentration of the bath of the organ ([10]; daily dose 5.0, s.c. 3 weeks): 189 pmol/g/min
pIC50 [1]: 6.46
LD50 ([2]; iv): 40 mg/kg
LD50 ([2]; po): 300 mg/kg
LD50 ([2]; sc): 140 mg/kg

C#CCN(C)[C@H](C)Cc1ccccc1 [Example 1-deprenyl, reference compound]
pIC50 [5]: 5.15

CCCC(Cc1ccccc1)NC (centres unmarked) [Example 10]
pIC50 [1]: 5.74
LD50 ([2]; iv): 18 mg/kg
LD50 ([2]; sc): 175 mg/kg

CCCCCCC(Cc1ccccc1)NCCC (centres unmarked) [Example 13]
pIC50 [1]: 6.30
LD50 ([2]; sc): > 50 mg/kg
mortality ([2]; sc): 0%

CCCNC(Cc1ccccc1)Cc1ccccc1.Cl [Example 5, N-propyl-1,3-diphenyl-2-propylamine-hydrochloride]
motility [4, 16]: do increase motility
LD50 ([2]; sc): > 150 mg/kg
mortality ([2]; sc): 0%

CCCC(Cc1ccccc1)NCCCO (centres unmarked) [Example 2, N-(3-hydroxypropyl)-1-phenyl-2-pentylamine]
pIC50 [1]: 6.43
LD50 ([2]; iv): 50 mg/kg
LD50 ([2]; sc): > 200 mg/kg
mortality ([2]; sc): 0%

CCCCC(Cc1ccccc1)NCCC (centres unmarked) [Example 11]
motility [4, 16]: do increase motility
food intake ([7]; 5 mg/kg, first hour): decreasing effect being approximately identical with that of about 0.5 mg/kg of amphetamine
pIC50 [5]: 7.00
IC50, inhibition of noradrenaline releasing effect of tyramine [1]: can not be given
LD50 ([2]; sc): 110 mg/kg
